Results as given in patent US20240002393A1, “SUBSTITUTED BENZO[f][l ,2,4JTRIAZOL0[4,3-a][l ,4J[…] GABA A GAMMA! POSITIVE ALLOSTERIC MODULATORS” (Hoffmann-La Roche Inc., priority 2020, published 2024).

How the values were obtained:
[1] = molecular target: human GABAA α2β2γ1 receptor (Homo sapiens (Human), UniProt P47869+Q8N1C3); test: Radioligand binding assay, [3H]RO7239181 competition, γ1-containing GABAA subtypes; details: for γ2/γ1 Selectivity Ratio: Ki α1β3γ2 (nM)/Ki α2β2γ1 (nM); for LogSel: Log[Ki α1β3γ2 (nM)/Ki α2β2γ1 (nM)]
Procedure: The affinity of compounds at GABAA γ1 subunit-containing receptors was measured by competition for [^3H]RO7239181 (67.3 Ci/mmol; Roche) binding to membranes from HEK293F cells (ThermoFisher R79007) expressing human (transiently transfected) receptors of composition α5β2γ1, α2β2γ1, α1β2γ1.
Harvested pellets from HEK293F cells expressing the different GABAA receptor subtypes were resuspended in Mannitol Buffer pH 7.2-7.4 (Mannitol 0.29M, Triethylamine 10 mM, Acetic acid 10 mM, EDTA 1 mM plus protease inhibitors (20 tablets Complete, Roche Diagnostics Cat. No. 05 056 489 001 per liter)), washed two times and then resuspended at 1:10 to 1:15 dilution in the same buffer. Cell disruption was performed by stirring the suspension in a Parr vessel #4637 at 435 psi for 15 minutes, and then the suspensions were centrifuged at 1000×g for 15 minutes at 4° C. (Beckman Avanti J-HC; rotor JS)-4.2). The supernatant (S1) was transferred in a 21 Schott flask and the pellet (P1) was resuspended with Mannitol Buffer up to 175 ml. The resuspended pellet was transferred into a 250 ml Corning centrifugal beaker and centrifuged at 1500×g for 10 minutes at 4° C. (Beckman Avanti J-HC; rotor JS)-4.2). The supernatant (S1) was then transferred in the 21 Schott flask and the pellet was discarded. The supernatants (S1) were centrifuged in 500 ml Beckman polypropylene centrifugal beaker at 15,000×g for 30 minutes at 4° C. (Beckman Avanti J-20 XP; rotor JLA-10.500). The pellet (P2) was resuspended with Mannitol Buffer 1:1 and frozen at −80° C. The supernatant (S2) was centrifuged in 100 ml Beckman polypropylene centrifugal tubes at 48000×g for 50 minutes at […] (Beckman Avanti J-20 XP; rotor JA-18). The supernatant (S3) was discarded and the pellet (P3) was resuspended with 1:1 Mannitol Buffer. The P2 and P3 protein concentration was determined with the BIORAD Standard assay method with bovine serum albumin as standard and measured on the NANO-Drop 1000. The membrane suspension was aliquots (500 μl per tube) and stored at −80° C. until required.
Membrane homogenates were resuspended and polytronised (Polytron PT1200E Kinematica AG) in Potassium Phosphate 10 mM, KCl 100 mM binding buffer at pH 7.4 to a final assay concentration determined with a previous experiment.
Assays were incubated to equilibrium for 1 hour at 4° C. and then, membranes were filtered onto unifilter (96-well white microplate with bonded GF/C filters preincubated 20-50 minutes in 0.3% Polyethylenimine) with a Filtermate 196 harvester (Packard BioScience) and washed 4 times with cold Potassium Phosphate 10 mM pH 7.4, KCl 100 mM binding buffer. After drying, filter-retained radioactivity was detected by liquid scintillation counting. K, values were calculated using Excel-Fit (Microsoft) and are the means of two determinations.

h-GABA-A α2β2γ1 = h-GABA-A α2β2γ1 (Homo sapiens (Human), UniProt P47869+Q8N1C3); test: Two-electrode voltage clamp electrophysiology in Xenopus oocytes expressing GABAA receptors; type: cell-based; details: for potentiation of the GABA-induced current in α2βγ1 GABAA receptor subtype expressing oocytes: reference PAMs, GABA EC20
Procedure: Xenopus laevis oocytes at maturation stages V-VI were used for the expression of cloned mRNA encoding GABAA receptor subunits. Oocytes ready for RNA micro-injection were bought from Ecocyte, Castrop-Rauxel, Germany and stored in modified Barth's medium (composition in mM: NaCl 88, KCl 1, NaHCO3 2.4, HEPES 10, MgSO4 0.82, CaNO3 0.33, CaCl2 0.33, pH=7.5) at 20° C. until the experiment.
Oocytes were plated in 96-well plates for microinjection using the Roboinject automated instrument (MultiChannelSystems, Reutlingen, Germany). Approximately 50 nL of an aqueous solution containing the RNA transcripts for the subunits of the desired GABAA receptor subtype was injected into each oocyte. […] Oocytes were kept in modified Barth's medium (composition in mM: NaCl 88, KCl 1, NaHCO3 […], HEPES 10, MgSO4 0.82, CaNO3 0.33, CaCl2 0.33, pH=7.5) at 20° C. until the experiment.
Electrophysiological experiments were performed using the Roboocyte instrument (MultiChannelSystems, Reutlingen, Germany) on days 3 to 5 after the micro-injection of mRNA. During the experiment the oocytes were constantly superfused by a solution containing (in mM) NaCl 90, KCl 1, HEPES 5, MgCl2 1 CaCl2 1 (pH 7.4). Oocytes were impaled by two glass microelectrodes (resistance: 0.5-0.8 MΩ) which were filled with a solution containing KCl 1M+K-acetate 1.5 M and voltage-clamped to −80 mV. The recordings were performed at room temperature using the Roboocyte two-electrode voltage clamp system (Multichannelsystem). After an initial equilibration period of 1.5 min GABA was added for 1.5 min at a concentration evoking approximately 20% of a maximal current response (EC20). After another rest interval of 2.5 min GABA was again added evoking a response of similar amplitude and shape. […] Current traces were recorded at a digitization rate of 10 Hz during and shortly before and after the GABA application.
Each compound and concentration was tested on at least 3 oocytes. Different oocytes were used for different compound concentrations.
For the analysis, the digitized current traces of the first and second GABA response were superimposed and, if necessary, rescaled to equal maximal amplitudes. The ratio between the two responses during the time interval of test compound application was calculated point by point. The extremum of the resulting “ratio trace” was taken as the efficacy (“Fold increase”) of the compound expressed as “% modulation of GABA EC20” (100*(Fold increase−1)).

[2] = molecular target: human GABAA α1β3γ2 receptor (Homo sapiens (Human), UniProt P14867+P18507); test: Radioligand binding assay, [3H]Flumazenil competition, γ2-containing GABAA subtypes
Procedure: The affinity of compounds at GABAA γ2 subunit-containing receptors was measured by competition for [^3H]Flumazenil (81.1 Ci/mmol; Roche) binding to HEK293F cells expressing human (transiently transfected) receptors of composition α1β3γ2.
Harvested pellets from HEK293F cells expressing the different GABAA γ2 receptor subtypes were resuspended in Mannitol Buffer pH 7.2-7.4 and processed as described above for the cells expressing the GABAA γ1 subunit-containing receptors.
Assays were incubated to equilibrium for 1 hour at 4° C. and harvested onto GF/C uni-filters (Packard) by filtration using a Packard harvester and washing with ice-cold wash buffer (50 mM Tris; pH 7.5). After drying, filter-retained radioactivity was detected by liquid scintillation counting. Ki values were calculated using Exel-Fit (Microsoft) and are the means of two determinations.

Row | SMILES | γ2/γ1 Selectivity Ratio [1] | LogSel [1] | Efficacy (GABA)% (h-GABA-A α2β2γ1; % modulation of GABA EC20 = 100*(Fold increase−1), compound at 30-fold Ki) [%] | potentiation of the GABA-induced current in α2βγ1 GABAA receptor subtype expressing oocytes (h-GABA-A α2β2γ1) [%] | Ki [1] [µM] | Ki [2] [µM]
1 | Cc1nnc2n1-c1ccc(Cl)cc1C(c1ccccc1)=NC2 [Alprazolam, reference compound] | 0.0050 | −2.3 |  |  |  | 
2 | Clc1ccc2c(c1)C(c1ccccc1)=NCc1nncn1-2 [Estazolam, reference compound] | 0.0089 | −2.0 |  |  |  | 
3 | CCc1nnc2n1-c1ccc(C(F)(F)F)c(Cl)c1C(c1c(F)cccc1F)=N[C@H]2C [Example 108, (4S)-7-chloro-6-(2,6-difluorophenyl)-1-ethyl-4-methyl-8-(trifluoromethyl)-4H-[1,2,4]triazolo[4,3-a][1,4]benzodiazepine] | 50.4 |  | 94 |  |  | 
4 | CN1C(=O)CN=C(c2ccccc2F)c2cc([N+](=O)[O-])ccc21 [Flunitrazepam, reference compound] |  |  |  | ~60 |  | 
5 | Cc1ncc2n1-c1ccc(Cl)cc1C(c1ccccc1F)=NC2 [Midazolam, reference compound] | 0.0068 | −2.2 |  | ~60 |  | 
6 | Cc1nnc2n1-c1ccc(Br)cc1C(c1c(F)cccc1F)=NC2 [RE-A, 8-bromo-6-(2,6-difluorophenyl)-1-methyl-4H-[1,2,4]triazolo[4,3-a][1,4]benzodiazepine, reference compound] | 0.18 | −0.74 |  |  |  | 
7 | Cc1nnc2n1-c1ccc(C(F)(F)F)cc1C(c1c(F)cccc1F)=NC2 [RE-B, 6-(2,6-difluorophenyl)-1-methyl-8-(trifluoromethyl)-4H-[1,2,4]triazolo[4,3-a][1,4]benzodiazepine, reference compound] | 0.23 | −0.64 |  |  |  | 
8 | Cc1nnc2n1-c1ccccc1C(c1c(F)cccc1F)=NC2 [RE-C, 6-(2,6-difluorophenyl)-1-methyl-4H-[1,2,4]triazolo[4,3-a][1,4]benzodiazepine, reference compound] | 0.0092 | −2.0 |  |  |  | 
9 | Cc1nnc2n1-c1cccc(Cl)c1C(c1c(F)cccc1F)=N[C@H]2C [RE-D, (4S)-7-chloro-6-(2,6-difluorophenyl)-1,4-dimethyl-4H-[1,2,4]triazolo[4,3-a][1,4]benzodiazepine, reference compound] | 2.215 | 0.35 |  |  | 0.454 | 1.01
10 | Cc1nnc2n1-c1ccc(Cl)cc1C(c1ccccc1Cl)=NC2 [Triazolam, reference compound] |  | −1.5 |  | ~60 |  | 
